The subject of assay [1] is SK-BR-3 cells. As to the kind of experiment: In vitro cell viability assay (CellTiter-Glo, 6 days). It counts as cell-based, human. As to conditions: Homo sapiens, SK-BR-3, free antifolate drugs. How it is done:
(§1) FaDu, BxPC-3, HeLa, MV4-11, and RAJI cell lines were obtained from Deutsche Sammlung von Mikroorganismen und Zellkulturen (Leipzig, Germany). Jurkat NucLight Red cells were obtained from Essen BioScience Inc. (Ann Arbor, Mich., USA). SK-BR-3 and SK-OV-3 cells were cultured in McCoys 5A medium (Lonza; Walkersville, Md., USA) supplemented with 10% v/w Fetal Bovine Serum (FBS), Heat-inactivated (HI) (Gibco-Life Technologies; Carlsbad, Calif.) and 80 U/mL Pen/Strep (Gibco-Life Technologies), at 37° C. in a humidified incubator under 5% CO2 atmosphere. SW-620 cells were similarly maintained in RPMI 1640 medium (Lonza), containing 10% v/w FBS HI and 80 U/mL Pen/Strep. A-549 cells were similarly maintained in F-12K Nutrient Mixture (1×) (Gibco-Life Technologies) media supplemented with 80 U/mL Pen/Strep and 5% v/w FBS, which was Qualified (Q) (Gibco-Life Technologies). BT-474 and AU-565 cells were similarly maintained in RPMI 1640 medium (Lonza), containing 10% v/w FBS, which was Qualified (Q) (Gibco-Life Technologies), and 80 U/mL Pen/Strep. […] Jurkat NucLight Red cells were similarly maintained in RPMI 1640 medium (Lonza), containing 10% v/w FBS HI, 80 U/mL Pen/Strep and 0.5 μg/mL Puromycin (Gibco-Life Technologies). FaDu cells were cultured in EMEM medium (Lonza) supplemented with 10% v/w FBS HI (Gibco-Life Technologies), 1× GlutaMAX (Gibco-Life Technologies), and 80 U/mL Pen/Strep (Gibco-Life Technologies), at 37° C. in a humidified incubator under 5% CO2 atmosphere.
(§2) After an overnight incubation, 10 serial log 10 dilutions of the free drugs were made in DMSO (Sigma-Aldrich). These free drug dose-response curves were 10-times further diluted in complete growth medium. For the ADCs according to the invention 10 serial log 10 dilutions were made in complete growth medium. 10 μL of a composition comprising a free drug or an ADC according to the invention was added to the assay plate (final DMSO content for free drugs was 1%). […] […] Percentage cell survival was calculated by dividing the measured luminescence for each free drug or ADC according to the concentration with the average mean of untreated cells (1% or 0.1% DMSO control (for free drugs) or 100% complete growth medium (for ADCs)) multiplied by 100.
(§3) Curves were fitted by non-linear regression using the sigmoidal dose-response equation with variable slope (four parameters) using curve-fitting software (GraphPad Prism, version 9.4.0 for Windows, GraphPad, San Diego, Calif. or Electronic Laboratory Notebook (ELN) add-in BioAssay, version 19.1.0.0218, Perkin Elmer, Waltham, Mass.). Relative IC50 values were calculated as the concentration that gives a response halfway between bottom and top of the curve, when using a 4-parameter logistic fit. Data were reported as mean IC50 value of at least one experiment performed in duplicate.
In general terms: ATP-based viability assays read luminescence as a measure of living cells.

The test system of assay [2] is SW-620 cells. Described as above. As to conditions: Homo sapiens, free antifolate drugs, Table 1a. It counts as cell-based. How it is done: as §1
(§4) After an overnight incubation, 10 serial log 10 dilutions of the free drugs were made in DMSO (Sigma-Aldrich). These free drug dose-response curves were 10-times further diluted in complete growth medium. For the ADCs according to the invention 10 serial log 10 dilutions were made in complete growth medium. 10 μL of a composition comprising a free drug or an ADC according to the invention was added to the assay plate (final DMSO content for free drugs was 1%). […] Cell viability was assessed after 6 days using a luminescent assay kit (CellTiter-Glo™ (CTG), Promega Corporation) according to the manufacturer's instructions. Percentage cell survival was calculated by dividing the measured luminescence for each free drug or ADC according to the concentration with the average mean of untreated cells (1% or 0.1% DMSO control (for free drugs) or 100% complete growth medium (for ADCs)) multiplied by 100.
as §3

Assay [3] relates to A-549 cells. The description is as above. It counts as cell-based. The settings on record: Homo sapiens, A549; free antifolate drugs, Table 1a; $ steep hillslope. How it is done:
(§5) Human tumor cell lines SK-BR-3, SW-620, A-549, BT-474, Jurkat Clone E6-1, AU-565, and SK-OV-3 were obtained from American Type Culture Collection (Rockville, Md., USA). FaDu, BxPC-3, HeLa, MV4-11, and RAJI cell lines were obtained from Deutsche Sammlung von Mikroorganismen und Zellkulturen (Leipzig, Germany). Jurkat NucLight Red cells were obtained from Essen BioScience Inc. (Ann Arbor, Mich., USA). SK-BR-3 and SK-OV-3 cells were cultured in McCoys 5A medium (Lonza; Walkersville, Md., USA) supplemented with 10% v/w Fetal Bovine Serum (FBS), Heat-inactivated (HI) (Gibco-Life Technologies; Carlsbad, Calif.) and 80 U/mL Pen/Strep (Gibco-Life Technologies), at 37° C. in a humidified incubator under 5% CO2 atmosphere. SW-620 cells were similarly maintained in RPMI 1640 medium (Lonza), containing 10% v/w FBS HI and 80 U/mL Pen/Strep. A-549 cells were similarly maintained in F-12K Nutrient Mixture (1×) (Gibco-Life Technologies) media supplemented with 80 U/mL Pen/Strep and 5% v/w FBS, which was Qualified (Q) (Gibco-Life Technologies). BT-474 and AU-565 cells were similarly maintained in RPMI 1640 medium (Lonza), containing 10% v/w FBS, which was Qualified (Q) (Gibco-Life Technologies), and 80 U/mL Pen/Strep. Jurkat Clone E6-1, BxPC-3, HeLa, MV4-11, and RAJI cells were similarly maintained in RPMI 1640 medium (Lonza), containing 10% v/w FBS HI and 80 U/mL Pen/Strep. Jurkat NucLight Red cells were similarly maintained in RPMI 1640 medium (Lonza), containing 10% v/w FBS HI, 80 U/mL Pen/Strep and 0.5 μg/mL Puromycin (Gibco-Life Technologies). FaDu cells were cultured in EMEM medium (Lonza) supplemented with 10% v/w FBS HI (Gibco-Life Technologies), 1× GlutaMAX (Gibco-Life Technologies), and 80 U/mL Pen/Strep (Gibco-Life Technologies), at 37° C. in a humidified incubator under 5% CO2 atmosphere.
as §4, with “Cells in complete growth medium were plated in 96-well plates (90 μL/well) and incubated at 37° C., 5% CO2 at the following cell densities: 6500 SK-BR-3, 4000 SW-620, 2500 A-549, 10000 BT-474, 3000 Jurkat Clone E6-1, 5000 AU-565, 1250 FaDu, 1250 BxPC-3, 1000 HeLa, 7500 MV4-11, 1000 RAJI, 3000 Jurkat NucLight Red, and 4000 SK-OV-3 cells per well. After” for “After”
as §3

In assay [4] the test system is AU-565 cells. The assay is described as above. It counts as cell-based, human. The settings on record: Homo sapiens, AU565, free antifolate drugs. The procedure:
as §1, §2, §3

Assay [5] relates to Human tumor cell lines. Briefly: In vitro cell viability assays, free antifolate drugs, overall comparison. It counts as cell-based. As to conditions: compared with talotrexin or parent compound. How it is done:
as §5
as §4, with “Cells in complete growth medium were plated in 96-well plates (90 μL/well) and incubated at 37° C., 5% CO2 at the following cell densities: 6500 SK-BR-3, 4000 SW-620, 2500 A-549, 10000 BT-474, 3000 Jurkat Clone E6-1, 5000 AU-565, 1250 FaDu, 1250 BxPC-3, 1000 HeLa, 7500 MV4-11, 1000 RAJI, 3000 Jurkat NucLight Red, and 4000 SK-OV-3 cells per well. After” for “After”
as §3

Assay [6] concerns Jurkat NucLight Red cells. Briefly: In vitro cell viability assay (CellTiter-Glo, 6 days). Type of assay: cell-based, human. The settings on record: Homo sapiens, Jurkat, free antifolate drugs. How it is done: as §1, §4, §3

In general, IC50 refers to the concentration that inhibits the measured activity by half.

With `CN(Cc1cnc2nc(N)nc(N)c2n1)c1ccc(C(=O)N[C@@H](CCCNC(=O)c2cc(N)ccc2C(=O)O)C(=O)O)cc1` [XT20, (S)-4-Amino-2-((4-carboxy-4-(4-(((2,4-diaminopteridin-6-yl)methyl)(methyl)amino)benzamido)butyl)-carbamoyl)benzoic acid], the IC50 in assay [1] (Table 1a) was found to be 25 nM; in assay [2], 12 nM; in assay [3], 19 nM.
On to `Nc1ccc(C(=O)O)c(C(=O)NCCC[C@H](NC(=O)c2ccc(CCc3cnc4nc(N)nc(N)c4n3)cc2)C(=O)O)c1` [XT24, (S)-4-Amino-2-((4-carboxy-4-(4-(2-(2,4-diaminopteridin-6-yl)ethyl)benzamido)butyl)carbamoyl) benzoic acid], for which the IC50 is 18 nM in assay [1] (Table 1a), 7.5 nM in assay [2] and 27 nM in assay [3].
Taken in the same sequence, the figures for `Nc1nc(N)c2nc(CNc3ccc(C(=O)N[C@@H](CCCNC(=O)c4ccccc4C(=O)O)C(=O)O)cc3)cnc2n1` [Talotrexin, reference compound] were 1.83 nM, 1.74 nM and 1.7 nM.
As to `Nc1ccc(-c2cn(CCC[C@H](NC(=O)c3ccc(NCc4cnc5nc(N)nc(N)c5n4)cc3)C(=O)O)nn2)c(C(=O)O)c1` [XR22, (S)-5-Amino-2-(1-(4-carboxy-4-(4-(((2,4-diaminopteridin-6-yl)methyl)amino)benzamido)butyl)-1H-1,2,3-triazol-4-yl)benzoic acid], the IC50 is 0.9 nM in assay [4] (Table 1a), 2.2 nM in assay [1] (Table 1a) and about 2.5 nM in assay [3].
`Nc1ccc(C(=O)NCCC[C@H](NC(=O)c2ccc(NCc3cnc4nc(N)nc(N)c4n3)cc2)C(=O)O)c(C(=O)O)c1` [XT10, (S)-5-amino-2-((4-carboxy-4-(4-(((2,4-diaminopteridin-6-yl)methyl)-amino)benzamido)butyl)carbamoyl)benzoic acid]: the IC50 in assay [1] (Table 1a) is 1.9 nM; in assay [2], 2.1 nM; in assay [3] it was 2 nM.
Consider `Nc1ccc(C(=O)O)c(C(=O)NCCC[C@H](NC(=O)c2ccc(NCc3cnc4nc(N)nc(N)c4n3)cc2)C(=O)O)c1` [XT9, (S)-4-Amino-2-((4-carboxy-4-(4-(((2,4-diaminopteridin-6-yl)methyl)amino)benzamido)butyl)carbamoyl)-benzoic acid], for which the figures for the IC50 in assay [1] (Table 1a), in assay [2] and in assay [3] were 17 nM, 10 nM and 20 nM, respectively.
For `Nc1nc(N)c2nc(CNc3ccc(C(=O)N[C@@H](CCCNC(=O)c4ccc(O)cc4)C(=O)O)cc3)cnc2n1` [XS14, (S)-2-(4-(((2,4-diaminopteridin-6-yl)methyl)amino)benzamido)-5-(4-hydroxybenzamido)pentanoic acid], the IC50 in assay [4] (Table 1a) was 1.9 nM; in assay [1] (Table 1a) it was 1.6 nM; in assay [3] it was about 8.7 nM.
For `CN(Cc1cnc2nc(N)nc(N)c2n1)c1ccc(C(=O)N[C@@H](CCCNC(=O)c2ccc(N)cc2C(=O)O)C(=O)O)cc1` [XT21, (S)-5-amino-2-((4-carboxy-4-(4-(((2,4-diaminopteridin-6-yl)methyl)(methyl)amino)benzamido)butyl)carbamoyl)benzoic acid], the IC50 was determined as 2.1 nM in assay [1] (Table 1a), 2.9 nM in assay [2] and 2.3 nM in assay [3].
For the molecule `Nc1ccc(C(=O)NCCC[C@H](NC(=O)c2ccc(CCc3cnc4nc(N)nc(N)c4n3)cc2)C(=O)O)c(C(=O)O)c1` [XT25, (S)-5-amino-2-((4-carboxy-4-(4-(2-(2,4-diaminopteridin-6-yl)ethyl)benzamido)butyl)-carbamoyl)benzoic acid], the IC50 was determined as 1 nM in assay [1] (Table 1a), 1.1 nM in assay [2] and 2.3 nM in assay [3].
As for `Nc1ccc(C(=O)NCCC[C@H](NC(=O)c2ccc(NCc3ccc4nc(N)nc(N)c4c3Cl)cc2)C(=O)O)c(-c2nnn[nH]2)c1` [XT110, (S)-5-(4-Amino-2-(1H-tetrazol-5-yl)benzamido)-2-(4-(((2,4-diamino-5-chloroquinazolin-6-yl)methyl)amino)benzamido)pentanoic acid], the 50% inhibitory concentration (IC50) was 0.36 nM in assay [4] (Table 1b); 0.44 nM in assay [4] (Table 1c); 0.41 nM in assay [1] (Table 1b, # no full dose-response curve); 0.54 nM in assay [1] (Table 1c); 0.75 nM in assay [6] (Table 1b); 0.92 nM in assay [6] (Table 1c). The “antifolate activity, comparison in words” value in assay [5] is recorded as “strongly increased the antifolate activity”.
In the case of `Cc1c(CNc2ccc(C(=O)N[C@@H](CCCNC(=O)c3ccccc3C(=O)O)C(=O)O)cc2)ccc2nc(N)nc(N)c12` [Comparative compound 1, reference compound], the IC50 was 0.92 nM in assay [1] (Table 1a), 1.41 nM in assay [2] and 1.97 nM in assay [3].

(Values after patent publication US20230144211A1, “ANTIFOLATE LINKER-DRUGS AND ANTIBODY-DRUG CONJUGATES” (Byondis B.V., priority 2020, published 2023).)
